# Reference: US20250019382A1, “NOVEL INHIBITORS OF CYCLIN-DEPENDENT KINASES” (Origenis Gmbh, priority 2021, published 2025)
# Experiments:
# CDK9/CyclinT1 = biological target: T1, CDK9/CyclinT1 (Homo sapiens, UniProt P50750); assay: CDK9/T1 ADPGlo kinase assay; type: biochemical; conditions: CDK9/CyclinT1 6 nM, ATP 10 microM, PDKtide 40 microM, 120 min RT
# T1 construct: purchased ProQinase/Reaction Biology, USA #0371-0345-1
# Method: The testing compound was evaluated in 12 concentrations in a 1:3 dilution series, starting from 5microM as the highest concentration.
# In a white 384 microplate (Greiner bio-one, Austria #784904,) with 2 microL of 3-fold concentrated CDK9/CyclinT1 (ProQinase/Reaction Biology, USA #0371-0345-1, LOT.: 012), final concentration (f.c.) 6 nM, in 1×kinase buffer, 2 microL of compound (3× fold concentrated in f.c. 1.66% DMSO/H2O) was added and incubated at Room Temperature (RT) for 10 min. Then 2 microL of Substrate/ATP-Mix (3×PDKtide f.c. 40 microM, SignalChem Biotech, Canada via Biozol, Eching, Germany #P10-58, LOT.: L2230-7 and 3×UltraPure ATP f.c. 10 microM (ADP Glo Kinase assay, Promega GmbH, Germany #V9102)) were added, mixed and incubated for 120 min at RT.
# After incubation time, 5 microL of ADP Glo reagent (ready to use, ADP Glo Kinase assay, Promega GmbH, Germany #V9102) were added, mixed and incubated for 40 min at RT.
# In the last step, 10 microL of ADP Glo Detection reagent (ready to use, ADP Glo Kinase assay, Promega GmbH, Germany #V9102) were added, mixed and incubated for 30 min at RT.
# GloMax Discover GM3000 Reader (Promega GmbH, Germany 9700000249) was used for the readout.
# The inhibitor concentration was plotted against the luminescence to determine the IC50 using XLFit 5.5 (IDBS, Guildford) to fit to a sigmoidal dose response curve with a variable slope.
# CDK2/cyclin A1 [1] = biological target: T2, CDK2/cyclin A1 (Homo sapiens, UniProt P24941); assay: CDK2/cyclin A1 LanthaScreen (SelectScreen); type: binding; conditions: first list; duplicate, averaged
# T2 construct: purchased Invitrogen Ltd., Paisley, UK (SelectScreen service)
# Method: (§1) The CDK2 inhibitory activity of the compounds of the invention was measured in combination with different […] and assay systems. The SelectScreen™ assessment of the kinase inhibitory activity of CDK2 data point was performed in duplicate and averaged data is reported here. The SelectScreen™ kinase inhibitor assay service was used (Invitrogen Ltd., Paisley, UK) to investigate the ability of the compounds of the invention to inhibit CDK2 in dose dependent manner using ten inhibitor concentrations from 10 micromolar down to […] in half-logarithmic steps. The inhibitor concentration was plotted against the percent inhibition or displacement to determine the IC50 using XLFit 5.5 (IDBS, Guildford) to fit to a sigmoidal dose response curve with a variable slope.
# CDK2/cyclin A = biological target: T3, CDK2/cyclin A (Homo sapiens, UniProt P24941); assay: CDK2/cyclin A Z'-LYTE (SelectScreen); type: biochemical; conditions: duplicate, averaged
# T3 construct: purchased Invitrogen Ltd., Paisley, UK (SelectScreen service)
# Method: as §1
# CDK2/cyclin E1 = biological target: T4, CDK2/cyclin E1 (Homo sapiens, UniProt P24941); assay: CDK2/cyclin E1 LanthaScreen (SelectScreen); type: binding; conditions: duplicate, averaged
# T4 construct: purchased Invitrogen Ltd., Paisley, UK (SelectScreen service)
# Method: as §1
# CDK2/cyclin A1 [2] = biological target: T2, CDK2/cyclin A1; assay: CDK2/cyclin A1 LanthaScreen (SelectScreen), second list; type: binding; conditions: second list under the same heading; duplicate, averaged
# Method: as §1
# T1 sequence (P50750 whole entry): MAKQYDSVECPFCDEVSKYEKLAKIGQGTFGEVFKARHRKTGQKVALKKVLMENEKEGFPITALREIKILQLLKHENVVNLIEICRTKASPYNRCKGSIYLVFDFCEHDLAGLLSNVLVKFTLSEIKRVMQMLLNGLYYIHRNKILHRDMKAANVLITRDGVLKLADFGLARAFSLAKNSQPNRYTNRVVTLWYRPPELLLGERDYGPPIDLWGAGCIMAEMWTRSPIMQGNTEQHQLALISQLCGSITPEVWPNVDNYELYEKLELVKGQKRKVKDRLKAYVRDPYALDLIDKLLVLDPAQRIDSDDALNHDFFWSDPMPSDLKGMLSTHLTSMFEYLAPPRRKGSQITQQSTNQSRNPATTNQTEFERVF
# T1 sequence (O60563 whole entry partner): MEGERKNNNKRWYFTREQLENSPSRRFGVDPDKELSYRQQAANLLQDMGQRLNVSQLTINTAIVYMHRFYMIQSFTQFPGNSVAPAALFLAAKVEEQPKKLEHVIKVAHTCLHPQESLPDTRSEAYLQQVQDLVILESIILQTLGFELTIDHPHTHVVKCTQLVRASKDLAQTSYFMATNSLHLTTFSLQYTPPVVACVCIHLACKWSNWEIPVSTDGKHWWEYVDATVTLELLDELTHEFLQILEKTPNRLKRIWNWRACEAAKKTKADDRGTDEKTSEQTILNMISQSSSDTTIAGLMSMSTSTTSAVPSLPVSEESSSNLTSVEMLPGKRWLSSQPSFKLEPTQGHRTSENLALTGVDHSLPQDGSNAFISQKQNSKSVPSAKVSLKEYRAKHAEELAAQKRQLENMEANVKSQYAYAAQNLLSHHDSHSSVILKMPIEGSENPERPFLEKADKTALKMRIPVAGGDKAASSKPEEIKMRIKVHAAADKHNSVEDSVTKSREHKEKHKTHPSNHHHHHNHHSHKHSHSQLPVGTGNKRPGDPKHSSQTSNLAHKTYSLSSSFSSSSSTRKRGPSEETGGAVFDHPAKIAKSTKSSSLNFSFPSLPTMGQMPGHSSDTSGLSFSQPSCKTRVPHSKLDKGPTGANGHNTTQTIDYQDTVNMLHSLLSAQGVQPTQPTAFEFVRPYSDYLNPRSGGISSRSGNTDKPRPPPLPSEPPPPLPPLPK
Compound,IC50 (CDK9/CyclinT1) [nM],further results
"FCCCN[C@H]1CC[C@H](Nc2nc(-c3c(F)cccc3F)nc3c(Cl)cnn23)CC1 [Example #128, (1r,4r)-N1-(8-chloro-2-(2,6-difluorophenyl)pyrazolo[1,5-a][1,3,5]triazin-4-yl)-N4-(3-fluoropropyl)cyclohexane-1,4-diamine]",< 20,IC50 (CDK2/cyclin A1 [1]): < 200 nM; IC50 (CDK2/cyclin A): < 1000 nM; IC50 (CDK2/cyclin E1): < 200 nM; IC50 (CDK2/cyclin A1 [2]): < 200 nM
"COCCNC1CCC(Nc2nc(-c3c(F)cccc3F)nc3c(Cl)cnn23)CC1 (centres unmarked) [Example #124, (1r,4r)-N1-(8-chloro-2-(2,6-difluorophenyl)pyrazolo[1,5-a][1,3,5]triazin-4-yl)-N4-(2-methoxyethyl)cyclohexane-1,4-diamine]",< 200,IC50 (CDK2/cyclin A1 [1]): < 1000 nM; IC50 (CDK2/cyclin A): < 1000 nM; IC50 (CDK2/cyclin E1): < 200 nM; IC50 (CDK2/cyclin A1 [2]): < 200 nM
"FCCN[C@H]1CC[C@H](Nc2nc(-c3c(F)cccc3F)nc3c(Cl)cnn23)CC1 [Example #126, (1r,4r)-N1-(8-chloro-2-(2,6-difluorophenyl)pyrazolo[1,5-a][1,3,5]triazin-4-yl)-N4-(2-fluoroethyl)cyclohexane-1,4-diamine]",< 20,IC50 (CDK2/cyclin A1 [1]): < 200 nM; IC50 (CDK2/cyclin A): < 200 nM; IC50 (CDK2/cyclin E1): < 200 nM; IC50 (CDK2/cyclin A1 [2]): < 200 nM
"C=CCCN1CCC(n2cc(Nc3nc(-c4c(F)cccc4F)nc4ccnn34)cn2)CC1 [Example #87, N-(1-(1-(but-3-en-1-yl)piperidin-4-yl)-1H-pyrazol-4-yl)-2-(2,6-difluorophenyl)pyrazolo[1,5-a][1,3,5]triazin-4-amine]",< 200,
"Fc1cccc(Cl)c1-c1nc(Nc2cnn(C3CCN(C4CCOCC4)CC3)c2)n2ncc(Cl)c2n1 [Example #101, 8-chloro-2-(2-chloro-6-fluorophenyl)-N-(1-(1-(tetrahydro-2H-pyran-4-yl)piperidin-4-yl)-1H-pyrazol-4-yl)pyrazolo[1,5-a][1,3,5]triazin-4-amine]",< 20,
"CN1CCC(Nc2nc(-c3c(F)cccc3F)nc3c(Cl)cnn23)CC1 [Example #141, 8-chloro-2-(2,6-difluorophenyl)-N-(1-methylpiperidin-4-yl)pyrazolo[1,5-a][1,3,5]triazin-4-amine]",< 20,
"CC(=O)N1CCN(c2ccc(Nc3nc(-c4c(F)cccc4F)nc4ccnn34)cc2)CC1 [Example #39, 1-(4-(4-((2-(2,6-difluorophenyl)pyrazolo[1,5-a][1,3,5]triazin-4-yl)amino)phenyl)piperazin-1-yl)ethan-1-one]",< 1000,
"Clc1cccc(Cl)c1-c1nc(Nc2cnn(C3CCN(C4CCOCC4)CC3)c2)n2ncc(Cl)c2n1 [Example #102, 8-chloro-2-(2,6-dichlorophenyl)-N-(1-(1-(tetrahydro-2H-pyran-4-yl)piperidin-4-yl)-1H-pyrazol-4-yl)pyrazolo[1,5-a][1,3,5]triazin-4-amine]",< 200,
"CN(C)[C@H]1C[C@H](Nc2nc(-c3c(F)cccc3F)nc3c(Cl)cnn23)C1 [Example #130, (1r,3r)-N1-(8-chloro-2-(2,6-difluorophenyl)pyrazolo[1,5-a][1,3,5]triazin-4-yl)-N3,N3-dimethylcyclobutane-1,3-diamine]",< 200,
"N[C@@H]1CC[C@H](Nc2nc(-c3c(F)cccc3F)nc3c(Cl)cnn23)C1 [Example #125, (1S,3R)-N1-(8-chloro-2-(2,6-difluorophenyl)pyrazolo[1,5-a][1,3,5]triazin-4-yl)cyclopentane-1,3-diamine]",< 200,
"Fc1cccc(F)c1-c1nc(NC2CCC(N3CCCC3)CC2)n2ncc(Cl)c2n1 (centres unmarked) [Example #138, 8-chloro-2-(2,6-difluorophenyl)-N-((1r,4r)-4-(pyrrolidin-1-yl)cyclohexyl)pyrazolo[1,5-a][1,3,5]triazin-4-amine]",< 20,
"Fc1cccc(F)c1-c1nc(NC2CCC(N3CCOCC3)CC2)n2nccc2n1 (centres unmarked) [Example #70, 2-(2,6-difluorophenyl)-N-((1r,4r)-4-morpholinocyclohexyl)pyrazolo[1,5-a][1,3,5]triazin-4-amine]",< 20,
"Fc1cccc(F)c1-c1nc(Nc2cnn(C3CCN(CC4CC4)CC3)c2)n2nccc2n1 [Example #80, N-(1-(1-(cyclopropylmethyl)piperidin-4-yl)-1H-pyrazol-4-yl)-2-(2,6-difluorophenyl)pyrazolo[1,5-a][1,3,5]triazin-4-amine]",< 200,
"CCOc1cc(Nc2nc(-c3c(Cl)cccc3Cl)nc3ccnn23)ccc1N1CCN(C)CC1 [Example #12, 2-(2,6-dichlorophenyl)-N-(3-ethoxy-4-(4-methylpiperazin-1-yl)phenyl)pyrazolo[1,5-a][1,3,5]triazin-4-amine]",< 1000,
"CCNC(=O)c1ccc(Nc2nc(-c3c(F)cccc3F)nc3ccnn23)cc1 [Example #28, 4-((2-(2,6-difluorophenyl)pyrazolo[1,5-a][1,3,5]triazin-4-yl)amino)-N-ethylbenzamide]",< 1000,
"CC(C)(C)NC(=O)c1ccc(Nc2nc(-c3c(F)cccc3F)nc3ccnn23)cc1 [Example #27, N-(tert-butyl)-4-((2-(2,6-difluorophenyl)pyrazolo[1,5-a][1,3,5]triazin-4-yl)amino)benzamide]",< 1000,
"Fc1cccc(F)c1-c1nc(NCc2cccnc2)n2ncc(Cl)c2n1 [Example #146, 8-chloro-2-(2,6-difluorophenyl)-N-(pyridin-3-ylmethyl)pyrazolo[1,5-a][1,3,5]triazin-4-amine]",< 20,
"COc1ccc(Nc2nc(-c3c(F)cccc3F)nc3ccnn23)cc1OC [Example #65, 2-(2,6-difluorophenyl)-N-(3,4-dimethoxyphenyl)pyrazolo[1,5-a][1,3,5]triazin-4-amine]",< 1000,
"CC(C)(C)N1CCN(c2ccc(Nc3nc(-c4c(F)cccc4F)nc4c(Cl)cnn34)cc2)CC1 [Example #97, N-(4-(4-(tert-butyl)piperazin-1-yl)phenyl)-8-chloro-2-(2,6-difluorophenyl)pyrazolo[1,5-a][1,3,5]triazin-4-amine]",< 200,
"C#Cc1cnn2c(N[C@H]3CC[C@H](N4CCOCC4)CC3)nc(-c3c(F)cccc3F)nc12 [Example #139, 2-(2,6-difluorophenyl)-8-ethynyl-N-((1r,4r)-4-morpholinocyclohexyl)pyrazolo[1,5-a][1,3,5]triazin-4-amine]",< 200,
"CCOc1cc(Nc2nc(-c3c(F)cccc3Cl)nc3ccnn23)ccc1C1=CCN(C)CC1 [Example #16, 2-(2-chloro-6-fluorophenyl)-N-(3-ethoxy-4-(1-methyl-1,2,3,6-tetrahydropyridin-4-yl)phenyl)pyrazolo[1,5-a][1,3,5]triazin-4-amine]",< 1000,
"CCOc1cc(Nc2nc(-c3c(F)cccc3F)nc3ccnn23)ccc1C1=CCN(C)CC1 [Example #14, 2-(2,6-difluorophenyl)-N-(3-ethoxy-4-(1-methyl-1,2,3,6-tetrahydropyridin-4-yl)phenyl)pyrazolo[1,5-a][1,3,5]triazin-4-amine]",< 1000,
"CN1CCN(C2CCN(c3ccc(Nc4nc(-c5ccccc5F)nc5ccnn45)cc3)CC2)CC1 [Example #59, 2-(2-fluorophenyl)-N-(4-(4-(4-methylpiperazin-1-yl)piperidin-1-yl)phenyl)pyrazolo[1,5-a][1,3,5]triazin-4-amine]",< 1000,
"Fc1cccc(F)c1-c1nc(Nc2cnn([C@H]3CC[C@H](N4CCOCC4)CC3)c2)n2nccc2n1 [Example #68, 2-(2,6-difluorophenyl)-N-(1-((1r,4r)-4-morpholinocyclohexyl)-1H-pyrazol-4-yl)pyrazolo[1,5-a][1,3,5]triazin-4-amine]",< 200,
"CC(C)(C)NC(=O)c1ccc(Nc2nc(-c3c(F)cccc3Cl)nc3ccnn23)cc1 [Example #23, N-(tert-butyl)-4-((2-(2-chloro-6-fluorophenyl)pyrazolo[1,5-a][1,3,5]triazin-4-yl)amino)benzamide]",< 1000,
"O=C(c1ccc(Nc2nc(-c3c(F)cccc3F)nc3c(Cl)cnn23)cc1)N1CCOCC1 [Example #98, (4-((8-chloro-2-(2,6-difluorophenyl)pyrazolo[1,5-a][1,3,5]triazin-4-yl)amino)phenyl)(morpholino)methanone]",< 1000,
